Patent US20120244192A1, “SUSTAINED RELEASE FORMULATIONS OF PEPTIDOMIMETIC DRUGS AND USES THEREOF” (priority 2009, published 2012)

What was measured:
[1] = molecular target: T1, C5a receptor (Mus musculus, UniProt P30993); assay: Reverse Passive Arthus Reaction model, immune complex peritonitis; type: in vivo, mice; conditions: intraperitoneal injection of 1 mg/kg as a liquid formulation
T1 construct: from tissue; host or cells: live mice (peritoneal neutrophil chemotaxis, in vivo)
T1 sequence (P30993 1-351): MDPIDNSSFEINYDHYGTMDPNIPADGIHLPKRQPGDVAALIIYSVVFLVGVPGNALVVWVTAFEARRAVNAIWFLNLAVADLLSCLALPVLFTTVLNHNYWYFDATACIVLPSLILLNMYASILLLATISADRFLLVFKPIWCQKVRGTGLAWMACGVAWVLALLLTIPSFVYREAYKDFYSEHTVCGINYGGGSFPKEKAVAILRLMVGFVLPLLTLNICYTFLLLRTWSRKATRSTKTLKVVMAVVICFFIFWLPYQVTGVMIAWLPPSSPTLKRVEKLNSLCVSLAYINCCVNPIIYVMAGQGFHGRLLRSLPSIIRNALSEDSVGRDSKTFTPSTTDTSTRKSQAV
Excerpt: C5a is a potent chemokine, inducing polymorphic nucleated granulocyte (neutrophils) and monocyte/macrophage chemotaxis. In the Reverse Passive Arthus Reaction model in mice, an immune complex peritonitis is induced by the intravenous administration of ovalbumin followed by intraperitoneal administration of an anti-ovalbumin antiserum, which leads to the formation of antigen-antibody complexes and subsequent activation of the complement system, including generation of C5a [Heller et al., 1999]. (Heller et al (1999) J Immunol 163; 985-994).

[2] = molecular target: T2, C5aR (Mus musculus, UniProt P30993); assay: Allogenic kidney transplantation model (ischemia reperfusion injury); type: in vivo, mice
T2 construct: from tissue; host or cells: live mice (kidney allograft recipients, in vivo)
T2 sequence (P30993 1-351): T1 sequence (P30993 1-351)
Excerpt: (Arumugam, T. V., Shiels I. A., Strachan, A. J., et al (2003) A small molecule C5a receptor antagonist protects kidneys from ischemia/reperfusion injury in rats. Kidney Int 63; 134-142, De Vries B, Matthijsen R A, Wolfs T G et al (2003a) Inhibition of complement factor C5 protects against renal ischemia-reperfusion injury: inhibition of late apoptosis and inflammation Transplantation 75; 375-382, De Vries B, Kohl J, Leclercq W K et al (2003b) Complement factor C5a mediates renal ischemia-reperfusion injury independent of neutrophils. J Immunol 170; 3883-3889.) JPE1375 liquid formulation is active in an allogenic transplantation model in mice. In this model rejection of the transplant is based on an ischemia reperfusion injury with measures of animal/graft survival and renal function. Blockade of C5aR with JPE1375 liquid formulation after transplantation prolonged survival of the animals from days to greater than 12 weeks compared to controls. C5aR blockade with JPE1375 microparticle sustained release formulation is expected to provide similar benefit after a single dose.

Substance: Hoo-Phe-Orn-Pro-hle-Pff-Phe-NH2 [JPE1375]
- inhibition of C5a receptor mediated chemotaxis [1]: high in vivo potency
- survival of the animals ([2]; after transplantation, prolonged from days, compared to controls): greater than 12 weeks
- activity in allogenic transplantation model ([2]; liquid formulation): active
